In the assay the test system is OF1 mice. Kind of assay: Maximal electroshock test (MES Test). The assay is classed as in vivo. Conditions: for responders at 50 mg/kg / responders at 25 mg/kg: Mus musculus, read-out: %-Protection; for responders at 25 mg/kg: p.o. (footnote b). The procedure, abridged:
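Compound given p.o. (typically 50 mg/kg) 1 h before tonic-clonic convulsions were induced via temporal electrodes (50 Hz, 18 mA, 0.2 s); seizure lasting 3 s or less counted as protection. Read-out is percent protected of five mice per condition; ED50 calculated, blood exposure sampled after shock.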

The mark [1] stands for this setting: po, 50 mg/kg, p.o., pre-treatment time −1 h.
[2] abbreviates: po, 50 mg/kg, p.o., pre-treatment time −2 h (footnote a).
Setting [3] is: dose of up to 50 mg/kg, p.o., 1 hour prior to induction of convulsions.

Read-outs that look alike come from different tables or passages of the source.

For `CCOC(=O)CC(=O)N(n1c(=O)[nH]c2cc(C(F)(F)F)c(-c3ccnn3C(C)C)cc2c1=O)S(C)(=O)=O` [Example 5.12, 3-{[6-(2-Isopropyl-2H-pyrazol-3-yl)-2,4-dioxo-7-trifluoromethyl-1,4-dihydro-2H-quinazolin-3-yl]-methanesulfonyl-amino}-3-oxo-propionic acid ethyl ester], the responders at 50 mg/kg under setting [1] was 40%. Consider `CC(=O)N(n1c(=O)[nH]c2cc(C(F)F)c(-c3ccnn3C(C)C)cc2c1=O)S(C)(=O)=O` [Example 6.01, N-Acetyl-N-[7-difluoromethyl-6-(2-isopropyl-2H-pyrazol-3-yl)-2,4-dioxo-1,4-dihydro-2H-quinazolin-3-yl]-methanesulfonamide], for which the responders at 50 mg/kg under setting [1] worked out at 40%. In addition, the responders at 25 mg/kg (po, pre-treatment time −1 h) worked out at 20%. As to `CCCC(=O)N(n1c(=O)[nH]c2cc(C(F)(F)F)c(-n3cnnc3)cc2c1=O)S(C)(=O)=O` [Example 9.04, N-Butyryl-N-(2,4-dioxo-6-[1,2,4]triazol-4-yl-7-trifluoromethyl-1,4-dihydro-2H-quinazolin-3-yl)-methanesulfonamide], under setting [2], the responders at 50 mg/kg came to 20%. The same measure, in the same setting: next, `CCC(=O)N(n1c(=O)[nH]c2cc(C(F)(F)F)c(-n3ccnc3)cc2c1=O)S(C)(=O)=O` [Example 4.04, N-(6-Imidazol-1-yl-2,4-dioxo-7-trifluoromethyl-1,4-dihydro-2H-quinazolin-3-yl)-N-propionyl-methanesulfonamide]: 40%.

In the case of `CC(C)COC(=O)N(n1c(=O)[nH]c2cc(C(F)(F)F)c(-c3ccnn3C(C)C)cc2c1=O)S(C)(=O)=O` [Example 5.09, [6-(2-Isopropyl-2H-pyrazol-3-yl)-2,4-dioxo-7-trifluoromethyl-1,4-dihydro-2H-quinazolin-3-yl]-methanesulfonyl-carbamic acid isobutyl ester], the responders at 50 mg/kg under setting [1] is 40%. The same measure, in the same setting: next, `CCOC(=O)CCC(=O)N(n1c(=O)[nH]c2cc(C(F)(F)F)c([C@H]3CCCO3)cc2c1=O)S(C)(=O)=O` [Example 10.10]: 20%.

Regarding `CCn1nccc1-c1cc2c(=O)n(N(C(=O)COC(C)=O)S(C)(=O)=O)c(=O)[nH]c2cc1C(F)(F)F` [Acetic acid 2-{[6-(2-ethyl-2H-pyrazol-3-yl)-2,4-dioxo-7-trifluoromethyl-1,4-dihydro-2H-quinazolin-3-yl]-methanesulfonyl-amino}-2-oxo-ethyl ester], the responders at 50 mg/kg under setting [3] came to 0%. On to `CCc1cc2[nH]c(=O)n(N(C(C)=O)S(C)(=O)=O)c(=O)c2cc1-c1ccnn1C` [Example 2.01, N-Acetyl-N-[7-ethyl-6-(2-methyl-2H-pyrazol-3-yl)-2,4-dioxo-1,4-dihydro-2H-quinazolin-3-yl]-methanesulfonamide], for which the responders at 50 mg/kg under setting [1] came to 100%. Consider `CC(=O)N(n1c(=O)[nH]c2cc(C(C)C)c(-c3ccnn3C)cc2c1=O)S(C)(=O)=O` [Example 3.01, N-Acetyl-N-[7-isopropyl-6-(2-methyl-2H-pyrazol-3-yl)-2,4-dioxo-1,4-dihydro-2H-quinazolin-3-yl]-methanesulfonamide], for which the responders at 50 mg/kg came to 100% (po, 50 mg/kg, p.o., pre-treatment time −0.5 h (footnote d)); 40% (po, Table 5, 50 mg/kg, p.o., pre-treatment time −0.25 h); 100% (po, Table 5, 50 mg/kg, p.o., pre-treatment time −1 h). The “%-Protection” value (Table 5, 50 mg/kg, p.o., pre-treatment time −0.5 h) is 100%.

For `CC(C)COC(=O)N(n1c(=O)[nH]c2cc(C(F)(F)F)c(-c3ccnn3C)cc2c1=O)S(C)(=O)=O` [Example 1.06, Methanesulfonyl-[6-(2-methyl-2H-pyrazol-3-yl)-2,4-dioxo-7-trifluoromethyl-1,4-dihydro-2H-quinazolin-3-yl]-carbamic acid isobutyl ester], the responders at 50 mg/kg under setting [1] is 60%. `CCCCCC(=O)N(n1c(=O)[nH]c2cc(C(F)(F)F)c(-n3cnnc3)cc2c1=O)S(C)(=O)=O` [Example 9.02, N-(2,4-Dioxo-6-[1,2,4]triazol-4-yl-7-trifluoromethyl-1,4-dihydro-2H-quinazolin-3-yl)-N-hexanoyl-methanesulfonamide]: the responders at 50 mg/kg under setting [2] is 20%. Regarding `CCCCCCOC(=O)N(n1c(=O)[nH]c2cc(CC)c(-c3ccnn3C)cc2c1=O)S(C)(=O)=O` [Methanesulfonyl-[7-ethyl-6-(2-methyl-2H-pyrazol-3-yl)-2,4-dioxo-1,4-dihydro-2H-quinazolin-3-yl]carbamic acid hexyl ester], the responders at 50 mg/kg under setting [3] came to 0%. In the case of `CCOC(=O)N(n1c(=O)[nH]c2cc(C(F)(F)F)c(C(CC)OC)cc2c1=O)S(C)(=O)=O` (centres unmarked) [Example 11.03, Methanesulfonyl-[6-(1-methoxy-propyl)-2,4-dioxo-7-trifluoromethyl-1,4-dihydro-2H-quinazolin-3-yl]-carbamic acid ethyl ester], under setting [1], the responders at 50 mg/kg amounted to 80%. In the case of `CCCCCC(=O)N(n1c(=O)[nH]c2cc(CC)c(-c3ccnn3C)cc2c1=O)S(C)(=O)=O` [Example 2.03, N-[7-Ethyl-6-(2-methyl-2H-pyrazol-3-yl)-2,4-dioxo-1,4-dihydro-2H-quinazolin-3-yl]-N-hexanoyl-methanesulfonamide], the responders at 25 mg/kg (po, pre-treatment time −1 h) was determined as 100%. Regarding `CCOC(=O)N(n1c(=O)[nH]c2cc(C(F)(F)F)c(-n3ccnc3C)cc2c1=O)S(C)(=O)=O` [Example 7.01, Methanesulfonyl-[6-(2-methyl-imidazol-1-yl)-2,4-dioxo-7-trifluoromethyl-1,4-dihydro-2H-quinazolin-3-yl]-carbamic acid ethyl ester], the responders at 50 mg/kg under setting [1] stood at 40%.

As to `CCCC(=O)N(n1c(=O)[nH]c2cc(C(C)C)c(-c3ccnn3C)cc2c1=O)S(C)(=O)=O` [Example 3.13, N-Butyryl-N-[7-isopropyl-6-(2-methyl-2H-pyrazol-3-yl)-2,4-dioxo-1,4-dihydro-2H-quinazolin-3-yl]-methanesulfonamide], the responders at 50 mg/kg under setting [1] amounted to 100%. For the compound `CCCCC(=O)N(n1c(=O)[nH]c2cc(C(F)(F)F)c(C(O)CC)cc2c1=O)S(C)(=O)=O` (centres unmarked) [Example 12.05, N-[6-(1-Hydroxy-propyl)-2,4-dioxo-7-trifluoromethyl-1,4-dihydro-2H-quinazolin-3-yl]-N-pentanoyl-methanesulfonamide], the responders at 50 mg/kg under setting [1] was 40%.

For the compound `CCn1nccc1-c1cc2c(=O)n(N(C(=O)C(C)(C)C)S(C)(=O)=O)c(=O)[nH]c2cc1C(F)F` [N-[7-Difluoromethyl-6-(2-ethyl-2H-pyrazol-3-yl)-2,4-dioxo-1,4-dihydro-2H-quinazolin-3-yl]-N-(2,2-dimethyl-propionyl)-methanesulfonamide], the responders at 50 mg/kg under setting [3] worked out at 0%. Take `CCCCC(=O)N(n1c(=O)[nH]c2cc(C(F)F)c(-c3ccnn3C(C)C)cc2c1=O)S(C)(=O)=O` [Example 6.03, N-[7-Difluoromethyl-6-(2-isopropyl-2H-pyrazol-3-yl)-2,4-dioxo-1,4-dihydro-2H-quinazolin-3-yl]-N-pentanoyl-methanesulfonamide]: the responders at 50 mg/kg under setting [1] is 40%. For the setting “po, pre-treatment time −1 h”, the responders at 25 mg/kg came to 0%.

Consider `CCCCC(=O)N(n1c(=O)[nH]c2cc(C(F)(F)F)c(-n3ccnc3)cc2c1=O)S(C)(=O)=O` [Example 4.02, N-(6-Imidazol-1-yl-2,4-dioxo-7-trifluoromethyl-1,4-dihydro-2H-quinazolin-3-yl)-N-pentanoyl-methanesulfonamide], for which the responders at 50 mg/kg under setting [1] is 100%. Moreover, the “%-seizure protection” value (single 50 mg/kg p.o. dose, 30 min after treatment, MES Test) worked out at 100%.

For `CCCCOC(=O)N(n1c(=O)[nH]c2cc(C(F)F)c(-c3ccnn3C(C)C)cc2c1=O)S(C)(=O)=O` [[7-Difluoromethyl-6-(2-isopropyl-2H-pyrazol-3-yl)-2,4-dioxo-1,4-dihydro-2H-quinazolin-3-yl]-methanesulfonyl-carbamic acid butyl ester], the responders at 50 mg/kg under setting [3] stood at 0%.

For the compound `CC(C)C(=O)N(n1c(=O)[nH]c2cc(C(F)(F)F)c(-n3ccnc3)cc2c1=O)S(C)(=O)=O` [Example 4.05, N-(6-Imidazol-1-yl-2,4-dioxo-7-trifluoromethyl-1,4-dihydro-2H-quinazolin-3-yl)-N-isobutyryl-methanesulfonamide], the responders at 50 mg/kg under setting [1] was 80%.

Take `CCn1nccc1-c1cc2c(=O)n(N(C(=O)OC)S(C)(=O)=O)c(=O)[nH]c2cc1C(F)(F)F` [Example 15.01, [6-(2-Ethyl-2H-pyrazol-3-yl)-2,4-dioxo-7-trifluoromethyl-1,4-dihydro-2H-quinazolin-3-yl]-methanesulfonyl-carbamic acid methyl ester]: the responders at 50 mg/kg under setting [1] came out at 40%. As to `CCCOC(=O)N(n1c(=O)[nH]c2cc(C(F)(F)F)c(C(CC)OC)cc2c1=O)S(C)(=O)=O` (centres unmarked) [Example 11.04, Methanesulfonyl-[6-(1-methoxy-propyl)-2,4-dioxo-7-trifluoromethyl-1,4-dihydro-2H-quinazolin-3-yl]-carbamic acid propyl ester], under setting [1], the responders at 50 mg/kg amounted to 20%. Same read-out and setting: next, `CCOC(=O)N(n1c(=O)[nH]c2cc(C(F)(F)F)c([C@H]3CCCO3)cc2c1=O)S(C)(=O)=O` [Example 10.05, Methanesulfonyl-N—((R)-2,4-dioxo-6-tetrahydro-furan-2-yl-7-trifluoromethyl-1,4-dihydro-2H-quinazolin-3-yl)-carbamic acid ethyl ester]: 40%. As to `CC(C)CC(=O)N(n1c(=O)[nH]c2cc(C(C)C)c(-c3ccnn3C)cc2c1=O)S(C)(=O)=O` [N-[7-Isopropyl-6-(2-methyl-2H-pyrazol-3-yl)-2,4-dioxo-1,4-dihydro-2H-quinazolin-3-yl]-N-(3-methyl-butyryl)-methanesulfonamide], the responders at 50 mg/kg under setting [3] turned out to be 0%.

(Values after patent US20130053381A1, “2,4-DIOXO-1,4-DIHYDRO-2H-QUINAZOLIN-3-YL-SULFONAMIDE DERIVATIVES” (NOVARTIS AG, priority 2010, published 2013).)
